According to US20120115827A1, “3-AMINOBENZAMIDE COMPOUNDS AND VANILLOID RECEPTOR SUBTYPE 1 (VR1) INHIBITORS” (Japan Tobacco Inc., priority 2004, published 2012):
Counter-ions that a name gives are not always drawn.

Target: T1, human VR1 (Homo sapiens, UniProt Q8NER1)
T1 construct: expressed in transfected cells
Test: Inhibition of Ca2+ entry in cells caused by proton (VR1 agonist)
Format: cell-based
Settings: Rat glioma (C6BU1) cells stably expressing human VR1; proton stimulation to pH 5.5; Fura 2-AM fluorescence; read-out: In vitro IC50
Method: The assay for evaluation of VR1 inhibition by the inventive compounds will be described below. The assay was intended to evaluate in vitro inhibition of Ca^2+ entry in cells caused by proton, one of the VR1 agonists.
Rat glioma (C6BU1) cells stably expressing human VR1 were suspended in 20 mM MES buffer (at pH 6.8, contg. 20 mM 2-morpholinoethanesulfonate (referred to as MES hereinafter), 115 mM NaCl, 5 mM KCl, 1 mM MgCl2 and 14 mM D-glucose) to make a cell density of 1×10^6 cells/mL. A fluorescent dye, Fura 2-AM solution (Dojindo Corporate, Cat. No. 343-05401) was added to the suspension to make a 5 μM concentration thereof. Further, Pluronic F-127 (Wako Pure Chemical Industries, Ltd., Cat. No. P6866) was added to make a 0.1% content thereof. Then, the suspension was incubated at 37° C. for 30 min. The cells were harvested and washed three times with 20 mM MES buffer. The cells were suspended again to make a cell density of 5×10^5 cells/mL. A 500-μL portion of the suspension was taken with a cuvette (MC MEDICAL, INC., Cat. No. SSR3121), to which […] MES buffer containing 250 mM CaCl2 was added to incorporate Ca^2+ into the cells. At the same time, 5 μL of a test compound solution (in a range of 100 μM to 10 nM in DMSO) was also added to provide a final concentration thereof in a range of 1 μM to 0.1 nM. Alternatively, 5 μl of DMSO was added as control to provide a final concentration of 1% DMSO. The suspension was set in an intracellular ionometer (CAF-110; JASCO) 10 min after those additions. The cells were stimulated with protons by addition of 60 μL of 20 mM MES buffer at pH 1.1 to the suspension to set its pH at 5.5. The activity of the test compound was determined as a difference between the minimum of fluorescence intensity before agonist stimulation and its maximum after the stimulation. The value of IC50 was derived from percentage of inhibition by the test compound compared with the control.

T1 sequence (Q8NER1 whole entry): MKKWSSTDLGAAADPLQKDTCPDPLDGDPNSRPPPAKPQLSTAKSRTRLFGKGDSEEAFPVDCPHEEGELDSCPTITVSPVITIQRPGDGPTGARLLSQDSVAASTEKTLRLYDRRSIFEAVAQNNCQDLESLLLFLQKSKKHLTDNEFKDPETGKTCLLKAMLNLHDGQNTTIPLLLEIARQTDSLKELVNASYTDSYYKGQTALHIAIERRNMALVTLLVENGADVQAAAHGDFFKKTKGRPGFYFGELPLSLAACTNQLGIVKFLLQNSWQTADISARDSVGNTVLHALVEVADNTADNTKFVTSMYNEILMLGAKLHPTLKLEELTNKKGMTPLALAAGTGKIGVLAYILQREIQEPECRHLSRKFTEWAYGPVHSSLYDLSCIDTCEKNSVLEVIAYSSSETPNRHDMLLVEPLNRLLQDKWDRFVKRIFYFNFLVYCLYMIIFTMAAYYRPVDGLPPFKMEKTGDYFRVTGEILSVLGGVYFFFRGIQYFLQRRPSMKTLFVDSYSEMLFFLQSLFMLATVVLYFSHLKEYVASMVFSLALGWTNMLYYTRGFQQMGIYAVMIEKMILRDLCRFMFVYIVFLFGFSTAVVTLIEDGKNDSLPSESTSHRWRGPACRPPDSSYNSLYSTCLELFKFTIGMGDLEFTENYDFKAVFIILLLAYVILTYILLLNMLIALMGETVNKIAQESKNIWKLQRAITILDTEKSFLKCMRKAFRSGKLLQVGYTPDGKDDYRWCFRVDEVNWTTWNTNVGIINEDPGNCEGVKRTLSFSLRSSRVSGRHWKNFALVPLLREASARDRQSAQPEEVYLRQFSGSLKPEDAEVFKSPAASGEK

SMILES	IC50
O=C(Nc1ccc(C(F)(F)F)nc1)c1ccc(Cl)c(N(CCO)c2ncccc2Cl)c1 [Example 40, 4-chloro-3-[N-(3-chloropyridin-2-yl)-N-(2-hydroxyethyl)amino]-N-(2-trifluoromethylpyridine-5-yl)benzamide]	≤ 100 nM
COc1ccc(C(=O)Nc2ccc(C(C)(C)C)cc2)cc1N(c1ncccc1Cl)C(C)C [Example 11, N-(4-tert-butylphenyl)-3-[N-(3-chloropyridin-2-yl)-N-isopropyl]amino-4-methoxybenzamide]	≤ 100 nM
CNC(=O)COc1ccc(C(=O)Nc2ccc(C(C)(C)C)cc2)cc1N(C)c1ncccc1Cl [Example 21, N-(4-tert-butylphenyl)-3-[N-(3-chloropyridin-2-yl)-N-methyl-amino]-4-(N-methylcarbamoylmethyl)oxybenzamide]	≤ 100 nM
CNC(=O)CN(c1cc(C(=O)Nc2ccc(C(F)(F)F)cc2)ccc1Cl)c1ncccc1Cl [Example 66, 4-chloro-3-[N-(3-chloropyridin-2-yl)-N-(N-methylcarbamoylmethyl)amino]-N-(4-trifluoromethylphenyl)-benzamide]	≤ 100 nM
COc1ccc(C(=O)Nc2ccc(OCC(C)C)cc2)cc1N(CCO)c1ccc(C)cn1 [Example 51, N-(4-isobutyloxyphenyl)-4-methoxy-3-[N-(5-methylpyridin-2-yl)-N-(2-hydroxyethyl)amino]-benzamide]	≤ 100 nM
CN(C)C(=O)c1cnc(N(C)c2cc(C(=O)Nc3ccc(C(C)(C)C)cc3)ccc2Cl)c(Cl)c1 [Example 77, 6-{[5-(4-tert-butylphenylcarbamoyl)-2-chlorophenyl]-methyl-amino}-5-chloro-N,N-dimethylnicotinamide]	100 to 1000 nM
CN(c1cc(C(=O)Nc2ccc(C(C)(C)C)cc2)ccc1-c1ccccc1)c1ncccc1Cl [Example 8, N-(4-tert-butylphenyl)-3-[N-(3-chloropyridin-2-yl)-N-methyl-amino]-4-phenylbenzamide]	≤ 100 nM
COCc1cnc(N(CC(N)=O)c2cc(C(=O)Nc3ccc(C(F)(F)F)cc3)ccc2Cl)c(Cl)c1 [Example 72, 4-chloro-3-[N-(3-chloro-5-methoxymethylpyridin-2-yl)-N-(carbamoylmethyl)amino]-N-(trifluoromethylphenyl)-benzamide]	≤ 100 nM
NC(=O)CN(c1cc(C(=O)Nc2ccc(OC(F)(F)F)cc2)ccc1Cl)c1ncc(C(F)(F)F)cc1Cl [Example 67, 4-chloro-3-[N-(3-chloro-5-trifluoromethylpyridin-2-yl)-N-(carbamoylmethyl)amino]-N-(4-trifluoromethoxyphenyl)-benzamide]	≤ 100 nM
CNC(=O)CN(c1cc(C(=O)Nc2ccc(C(C)(C)C)cc2)ccc1Cl)c1ncccc1Cl [Example 48, 4-chloro-3-[N-(3-chloropyridin-2-yl)-N-(N-methylcarbamoylmethyl)amino]-N-(4-tert-butylphenyl)-benzamide]	≤ 100 nM
CC(C)c1ccc(NC(=O)c2ccc(Cl)c(N(CCO)c3ncccc3Cl)c2)cc1 [Example 37, 4-chloro-3-[N-(3-chloropyridin-2-yl)-N-(2-hydroxyethyl)amino]-N-(4-isopropylphenyl)-benzamide]	≤ 100 nM
CN(c1cc(C(=O)Nc2ccc(OC(F)(F)F)cc2)ccc1F)c1ncc(CO)cc1Cl [Example 83, 3-[N-(3-chloro-5-hydroxymethylpyridin-2-yl)-N-methyl-amino]-4-fluoro-N-(4-trifluoromethoxyphenyl)-benzamide]	≤ 100 nM
CC(C)COc1ccc(NC(=O)c2ccc(Cl)c(N(CCO)c3ncccc3Cl)c2)cc1C(=O)N(C)C [Example 56, 4-chloro-3-[N-(3-chloropyridin-2-yl)-N-(2-hydroxyethyl)amino]-N-(3-dimethylcarbamoyl-4-isobutyloxyphenyl)-benzamide]	≤ 100 nM
CNC(=O)c1cc(NC(=O)c2ccc(Cl)c(N(CCO)c3ncccc3Cl)c2)ccc1OCC(C)C [Example 55, 4-chloro-3-[N-(3-chloropyridin-2-yl)-N-(2-hydroxyethyl)amino]-N-(4-isobutyloxy-3-methylcarbamoylphenyl)-benzamide]	≤ 100 nM
COc1ccc(C(=O)Nc2ccc(C(C)(C)C)cc2)cc1N(CCO)c1ncccc1Cl [Example 28, N-(4-tert-butylphenyl)-3-[N-(3-chloropyridin-2-yl)-N-(2-hydroxyethyl)]amino-4-methoxybenzamide]	≤ 100 nM
NC(=O)CN(c1cc(C(=O)Nc2ccc(C(F)(F)F)cc2)ccc1Cl)c1ncc(C(F)(F)F)cc1Cl [Example 68, 4-chloro-3-[N-(3-chloro-5-trifluoromethylpyridin-2-yl)-N-(carbamoylmethyl)amino]-N-(4-trifluoromethylphenyl)-benzamide]	≤ 100 nM

SMILES	IC50
COCc1cnc(N(CC(N)=O)c2cc(C(=O)Nc3ccc(OC(F)(F)F)cc3)ccc2Cl)c(Cl)c1 [Example 71, 4-chloro-3-[N-(3-chloro-5-methoxymethylpyridin-2-yl)-N-(carbamoylmethyl)amino]-N-(trifluoromethoxyphenyl)-benzamide]	≤ 100 nM
O=C(Nc1ccc(N2CCCCC2)c(F)c1)c1ccc(Cl)c(N(CCO)c2ncccc2Cl)c1 [Example 43, 4-chloro-3-[N-(3-chloropyridin-2-yl)-N-(2-hydroxyethyl)amino]-N-(3-fluoro-4-piperidinylphenyl)-benzamide]	≤ 100 nM
CC(C)COc1ccc(NC(=O)c2cccc(N(CCO)c3ncccc3Cl)c2)cc1 [Example 52, 3-[N-(3-chloropyridin-2-yl)-N-(2-hydroxyethyl)amino]-N-(4-isobutyloxyphenyl)-benzamide]	≤ 100 nM
CN(c1cccc(C(=O)Nc2ccc(C(C)(C)C)cc2)c1OCCO)c1ncccc1Cl [Example 27, N-(4-tert-butylphenyl)-3-[N-(3-chloropyridin-2-yl)-N-methyl-amino]-2-(2-hydroxyethyl)oxybenzamide]	≤ 100 nM
CC(C)(C)c1ccc(NC(=O)c2ccc(Cl)c(N(CC(=O)NCCO)c3ncccc3Cl)c2)cc1 [Example 57, N-(4-tert-butylphenyl)-4-chloro-3-{N-(3-chloropyridin-2-yl)-N—[N-(2-hydroxyethyl)carbamoylmethyl]amino}-benzamide]	≤ 100 nM
Cc1ccc(C(=O)Nc2ccc(OCC(C)C)cc2)cc1N(CC(N)=O)c1ncccc1Cl [Example 65]	≤ 100 nM
CN(c1ccc(Cl)c(C(=O)Nc2ccc(C(C)(C)C)cc2)c1)c1ncccc1Cl [Example 24, N-(4-tert-butylphenyl)-2-chloro-5-[N-(3-chloropyridin-2-yl)-N-methyl]aminobenzamide]	100 to 1000 nM
CN(c1cccc(C(=O)Nc2ccc(C(C)(C)C)cc2)c1)c1ccccn1 [Example 2, N-(4-tert-butylphenyl)-3-[N-(pyridin-2-yl)-N-methyl-amino]benzamide, hydrochloride salt]	100 to 1000 nM
NC(=O)CN(c1ccc(Cl)cn1)c1cc(C(=O)Nc2ccc(OC(F)(F)F)cc2)ccc1Cl [Example 69]	≤ 100 nM
NC(=O)CN(c1cc(C(=O)Nc2ccc(OC(F)(F)F)cc2)ccc1Cl)c1ncccc1Cl [Example 60, 4-chloro-3-[N-(3-chloropyridin-2-yl)-N-(carbamoylmethyl)amino]-N-(4-trifluoromethoxyphenyl)-benzamide]	≤ 100 nM
CN(c1cc(C(=O)Nc2ccc(Cl)cc2)ccc1Cl)c1ncc(CO)cc1Cl [Example 80, 4-chloro-3-[N-(3-chloro-5-hydroxymethylpyridin-2-yl)-N-methyl-amino]-N-(4-chlorophenyl)-benzamide]	≤ 100 nM
CCN(c1cc(C(=O)Nc2ccc(C(C)(C)C)cc2)ccc1OC)c1ncccc1Cl [Example 10, N-(4-tert-butylphenyl)-3-[N-(3-chloropyridin-2-yl)-N-ethyl]amino-4-methoxybenzamide]	≤ 100 nM
CN(c1cc(C(=O)Nc2ccc(C(C)(C)C)cc2)ccc1F)c1ncccc1Cl [Example 9, N-(4-tert-butylphenyl)-3-[N-(3-chloropyridin-2-yl)-N-methyl-amino]-4-fluorobenzamide]	≤ 100 nM
COCCN(c1cc(C(=O)Nc2ccc(C(C)(C)C)cc2)ccc1Cl)c1ncccc1Cl [Example 29, N-(4-tert-butylphenyl)-4-chloro-3-[N-(3-chloropyridin-2-yl)-N-(2-methoxyethyl)amino]benzamide]	≤ 100 nM
Cc1c(C(=O)Nc2ccc(C(C)(C)C)cc2)cccc1N(C)c1ncccc1Cl [Example 6, N-(4-tert-butylphenyl)-3-[N-(3-chloropyridin-2-yl)-N-methyl-amino]-2-methylbenzamide]	≤ 100 nM
CCN(c1cccc(C(=O)Nc2ccc(C(C)(C)C)cc2)c1)c1ncccc1Cl [Example 3, N-(4-tert-butylphenyl)-3-[N-(3-chloropyridin-2-yl)-N-ethyl-amino]benzamide]	≤ 100 nM
